# Measurements taken from US20220000892A1, “INFANT NUTRITIONAL COMPOSITION FOR USE IN THE ENHANCEMENT OF PANCREATIC MATURATION AND INSULIN BIOSYNTHESIS” (SOCIETE DES PRODUITS NESTLE S.A., priority 2018, published 2022).
# Test system: IUGR rats
# Test: Insulin content of pancreas of IUGR rats at postnatal day 57 after HMO supplementation (ELISA)
# Type: in vivo, Sprague-Dawley rats
# Conditions: gavage 3 g/kg body weight d7 to d21, then diet with 4.5 wt% HMO d22 to d57, sacrifice at day 57 after 6-hr fasting, compared with control IUGR rats (about 50 μg insulin per g pancreatic tissue), FIG. 1, *P<0.05
# Excerpt: Three groups of time-mated pregnant Sprague-Dawley female rats were bought from Charles River laboratories. One group was submitted to food restriction of 60% during the last 10 days of gestation and their offspring were cross-fostered to normally fed rats. A second group of pregnant females was normally fed and their offspring cross-fostered among the same group of dams. Immediately after birth ([…]), the born rat pups-subjects of the experiment-were assigned to one of the following groups: • IUGR group (negative control; n=20): IUGR rats being fed a normal diet after birth; • IUGR rats+HMO (test groups): During the experiment, they were reared by their mothers for 21 days and supplemented with HMOs (2-FL, LNnT or the Mix of 2-FL and LNnT). At weaning, they were fed a diet supplemented with the same HMOs, see details below. […] All rat pups were fed from birth (d=1) up to 57 days (d=57) based on the following protocol: • d1 to d6: all groups of rats were nursed by dam (mothers' milk only); • d7 to d21: all rats were nursed by dam (mothers' milk only). […] Rats were sacrificed at day 57 (postnatal day 57=p57) after a 6-hr fasting period and pancreas was dissected and its insulin content was extracted using a solution acid-ethanol and quantified using an Ultra Sensitive Insulin ELISA kit ([…]., Downer Grove, Ill., USA) with and inter assay CV of 4.0%.
row,Compound,insulin content of the rat's pancreas (amount of insulin per gram of pancreatic tissue)
1,"CC(=O)N[C@H]1[C@H](O[C@H]2[C@@H](O)[C@@H](CO)O[C@@H](O[C@H]3[C@H](O)[C@@H](O)C(O)O[C@@H]3CO)[C@@H]2O)O[C@H](CO)[C@@H](O[C@@H]2O[C@H](CO)[C@H](O)[C@H](O)[C@H]2O)[C@@H]1O (mixture of isomers) [LNnT, lacto-N-neotetraose]",about the same level of insulin
2,2′-fucosyllactose [2FL],significantly higher value of insulin
